The values below come from paper PMC3025571 (Nucleic Acids Research, 2010).

Read-outs that look alike come from different tables or passages of the source.

This assay concerns the target human FEN1 (Homo sapiens, UniProt P39748). Put plainly: Kinetic fluorogenic. The class given is biochemical.

human FEN1, sequence (P39748 whole entry): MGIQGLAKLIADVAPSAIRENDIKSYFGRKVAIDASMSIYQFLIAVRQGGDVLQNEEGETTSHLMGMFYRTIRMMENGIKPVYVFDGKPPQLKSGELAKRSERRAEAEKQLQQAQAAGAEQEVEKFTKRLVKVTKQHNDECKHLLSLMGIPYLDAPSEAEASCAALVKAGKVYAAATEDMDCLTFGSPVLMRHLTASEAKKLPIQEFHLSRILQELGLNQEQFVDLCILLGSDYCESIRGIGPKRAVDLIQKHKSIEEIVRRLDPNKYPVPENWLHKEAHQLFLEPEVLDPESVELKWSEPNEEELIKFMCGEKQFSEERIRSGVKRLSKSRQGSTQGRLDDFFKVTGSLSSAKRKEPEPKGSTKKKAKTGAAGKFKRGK

In general, IC50 refers to the concentration that gives 50% inhibition. Take `O=C(O)C1=CC(=C(c2ccc(O)c(C(=O)O)c2)c2ccc(O)c(C(=O)O)c2)C=CC1=O` [ATA, aurintricarboxylic acid]: under “average IC50, average of the fluorogenic and AlphaScreen assays”, the IC50 stood at 590 nM.
Consider `C[S+](C)[O-]` [DMSO, Dimethyl sulfoxide], for which, for the setting “concentrations up to 0.67%, data not shown, assay format not specified”, the “inhibition of FEN1” value is recorded as “not inhibit”.
As for `O=C(O)c1cc[c]([Sb](=[O])([OH])[OH])cc1[N+](=O)[O-]` [NSC-13755], for the setting “read-out: average IC50, average of the fluorogenic and AlphaScreen assays”, the half-inhibitory concentration (IC50) turned out to be 930 nM.
